Data as given in patent US9233164B2, “Water soluble fullerene formulations and methods of use thereof” (BOARD OF REGENTS OF THE UNIVERSITY OF NEBRASKA, priority 2011, dated 2016).

Tested on: superoxide
Test: Cell-free superoxide scavenging by EPR spectroscopy (HX+XO or FMN source, CMH spin probe)
Type: biochemical
Conditions: 400 U/ml SOD1
Method: The ability of C60-polymer complexes to scavenge superoxide was measured by EPR spectroscopy, as reported (Rosenbaugh et al. (2010) Biomaterials 31:5218-26). Briefly, superoxide generated by HX—XO or a photosensitizer, FMN, was detected using the CMH spin probe. Samples contained 0.025 mM DF and 0.005 mM DETC buffer (pH 7.4), 0.025 mM CMH, 0.025 mM HX and 10 mU XO (or 0.02 mM FMN instead of HX—XO) and C60-polymer complexes at different concentrations. After complete mixing, each sample was incubated at r.t. for 5 minutes and 50 μl of the sample was loaded into a glass capillary, which was then inserted into the capillary holder of the EPR spectrometer. The CMH radical signal was recorded and EPR spectrum amplitude was quantified.

superoxide dismutase [SOD1]
Effect on EPR spectrum: completely abolished the EPR spectrum
